From patent US20180036259A1, “NO DONORS FOR THE TREATMENT OF IMPAIRED TISSUE PERFUSION” (MIRANDAPHARMACEUTICALS AG, priority 2015, published 2018)
Entries after “also recorded” stand apart in the source; their conditions may differ.

What was measured:
[1] = in vivo; cited from earlier work
[2] = in humans; cited from earlier work
[3] = tested on: ligated hind limb (unilateral hind limb ischemia); assay: Blood perfusion by laser Doppler imaging in rat unilateral hind limb ischemia model of PAD; format: in vivo, Sprague-Dawley (SD) rats; conditions: SD rats; for blood perfusion in ligated limbs (laser Doppler imaging): hind limb ischemia, CLC-1011 3.6 mg/day by osmotic pump, Cilostazol 100 mg/kg bi-daily orally, over 21 days (FIG. 1)
Method: (§1) The animals were held in the Open Animal Facility at the Department of Physiology, University of Zurich and used after a suitable period allowing the animals to adapt to the new environment. A unilateral hind limb ischemia was created in the SD rats by surgical intervention, whereby the right hind limb was ligated and the vessels excised as described in Vasc. Pharmacol., 2009, 51(4):268-74. The animals were then randomly assigned to receive either Cilostazol alone (100 mg/kg/bi-daily orally by gavage), CLC-1011 (3.6 mg/day by mini-osmotic pump, e.g. Model #2004, Alzet Inc.) alone, a combination of Cilostazol (100 mg/kg/bi-daily) and CLC-1011 (3.6 mg/day by mini-osmotic pump), or placebo for a total duration of 2 or 4 weeks.
(§2) During the treatment intervals, animals were scanned using laser Doppler imaging every third day post-operation to estimate the blood perfusion in ligated limbs. Blood flow was measured using a laser Doppler imager (Moor, Axminster, UK) and analyzed with the MoorLDI™ Image Review V51 software. The animals were placed on a heating pad in order to maintain constant body temperature during the entire procedure. At the end of the 2 and 4 weeks interval, animals were sacrificed and muscles were isolated and prepared for histological analysis.

[4] = tested on: adductor muscle of hypoxic limb; assay: Histological analysis of muscles (new vessels, capillary and arteriole density), rat hind limb ischemia; format: in vivo, Sprague-Dawley (SD) rats; conditions: SD rats; for number of arterioles in isolated muscles (arterioles density/mm^2): at 4 weeks, compared to Cilostazol- and placebo-treated animals (FIG. 5)
Method: as §1, §2

[5] = tested on: arterioles of adductor muscle; assay: Vascular remodelling, histopathological analysis of isolated adductor muscle; format: in vivo; conditions: SD rats, compared to Cilostazol and placebo (FIG. 7)
Method: In order to assess possible effects the different treatments have on vascular remodelling, histopathological analysis of isolated adductor muscle was performed and the vascular luminal- and vascular wall-properties were addressed. […] See FIG. 7 showing in the left panel the arteriolar wall area/luminar ratio in the four treatment arms.

[6] = tested on: platelets; assay: Platelet activation by mean fluorescence intensity in platelets isolated from treatment groups; format: in vivo; conditions: platelets from treated rats; resting state (FIG. 8)
Method: Platelet activation was determined using mean fluorescence measurements.

[7] = tested on: stromal cell-derived factor 1 (SDF-1); assay: Circulating SDF-1 levels in serum by ELISA; format: in vivo; conditions: rats; serum at day 6 post-ischemia; ELISA (FIG. 9)
Method: The stromal cell-derived factor 1 (SDF-1) is a circulating proangiogenic cytokine, which plays an important role in angiogenesis. Serum of rats from 4 treatment arms was collected at day 6 post-ischemia. SDF-1 levels were determined by ELISA using methods known in the art.

[8] = tested on: ischemic hind limb; assay: Blood flow by laser Doppler imaging in diabetic mice with hind limb ischemia; format: in vivo, diabetic mouse (Bks.Cg+Lepr<db>/+Lepr<db>/OlaHsd); conditions: for blood perfusion (laser Doppler imaging): diabetic mice with hind limb ischemia (FIG. 10a)
Method: Blood flow was measured by laser Doppler imaging in diabetic mice with hind limb ischemic after treatment with CLC-1011 alone or in a combination with Cilostazol.

[9] = tested on: adductor muscles; assay: Immunohistochemical analysis of adductor muscles (capillary density), diabetic mice; format: in vivo, diabetic mouse (Bks.Cg+Lepr<db>/+Lepr<db>/OlaHsd); conditions: normalized by number of myocytes (FIG. 11a, 11b)
[10] = tested on: arterioles of adductor muscle; assay: Arterioles density by alpha-SMA immunohistology, diabetic mice; format: in vivo, diabetic mouse (Bks.Cg+Lepr<db>/+Lepr<db>/OlaHsd); conditions: alpha-SMA immunohistology (FIG. 12)
Method: Immunohistology for the alpha-smooth muscle (α-SMA) antigen was employed to highlight the vascular structures within the muscles and allow accurate counting of arterioles. Briefly, sections were deparaffinised in xylene (2×5 min) and rehydrated in decreasing concentrations of ethanol (2×3 min washes in 100% ethanol, followed by 1×3 min wash in 96% ethanol). Sections were washed twice with Tris-buffered saline (TBS, 0.1 M Tris- HCl with 0.9% NaCl, pH 7.4) and incubated for 1 h at room temperature (RT) with the primary antisera (M0851, Dako, Baar, Switzerland), without pretreatment. A detection kit containing the secondary antibody and diaminobenzidine tetrahydrochloride (DAB) as chromogen was subsequently applied according to the manufacturer's protocols
(Peroxidase/DAB plus Mouse Kit; DAKO). Sections were then washed 3 times in TBS and once in distilled water and counterstained for 1 min with haematoxylin, followed by rinsing for 5 min in tap water and dehydration in ascending alcohols, clearing in xylene, coverslipping and mounting. Arterioles density was quantified in histological sections of the adductor muscle. Results were expressed as number of arterioles/mm^2 of tissue.

[11] = tested on: arterioles; assay: Arteriolar remodeling response to ischemia (wall and luminal area), diabetic mice; format: in vivo, diabetic mouse (Bks.Cg+Lepr<db>/+Lepr<db>/OlaHsd); conditions: arterioles (FIG. 13)
Method: These findings corroborate with the remodeling effect of CLC-1011 seen at the vascular wall. To check the arteriolar remodeling response to the ischemia, immunohistochemistry was performed as described above. The remodeling consists in the wall area per luminal area ratio. The measurement of wall and luminal areas and diameter calculation of arterioles was performed in an equal random area for each histological sample. The results shown in FIG. 13a; FIG. 13b and FIG. 13c indicate that the luminal area of the vessels increased in the CLC-1011-treated animals, but not in the Cilostazol- or the placebo-treated animals. Of note, the results indicated no change in the wall area size in either of the groups.

[12] = tested on: endothelial progenitor cells; assay: Mobilization of putative stem cells into peripheral blood by flow cytometry, diabetic mice; format: in vivo, diabetic mouse (Bks.Cg+Lepr<db>/+Lepr<db>/OlaHsd)
Method: Mobilization of putative stern cells from bone marrow into the peripheral blood in the placebo and treated groups mice 7 days after surgery was assessed by flow cytometry in whole blood. The cells were identified using a combination of antibodies that binds to the specific cell surface markers typical for potential angiogenic stem cells.

[13] = whole blood flow cytometry, 7 days after surgery (FIG. 14)

Compound	half-live [1]	nitrate tolerance [2]	blood perfusion in ligated limbs (laser Doppler imaging) [3]	time up to which the increase in blood perfusion can be detected ([3]; ligated hind limb normalized to contralateral limb (FIG. 6))	angiogenesis / capillary density in the adductor muscle ([4]; after 2 and 4 weeks of treatment, 28 days after surgery (FIG. 4))	number of arterioles in isolated muscles (arterioles density/mm^2) [4]	number of arterioles in isolated muscles (arterioles density/mm^2) ([4]; listed as CL-1011)	formation of new blood vessels in hypoxic limb tissue ([4]; tissue sections (FIG. 3))	luminal area of the vessels [5]	platelet activation (mean fluorescence intensity) [6]	circulating SDF-1 levels in serum [7]	blood perfusion (laser Doppler imaging) [8]	area under the curve of blood flow ([8]; diabetic mice with hind limb ischemia (FIG. 10b))	capillary density in adductor muscles [9]	arterioles density in the hind limb [10]	luminal area of the vessels [11]	recruitment of the endothelial progenitor cells ([12]; peripheral blood 7 days after surgery)	number of potential endothelial progenitor cells positive for VEGFR2 [12, 13]	number of potential endothelial progenitor cells positive for stem cell antigen 1 (Sca-1) [12, 13]
NCCO[N+](=O)[O-] [AEN, 2-aminoethyl nitrate]	approx. 2 hours	does not provoke nitrate tolerance	–	–	–	–	–	–	–	–	–	–	–	–	–	–	–	–	–
NCCO[N+](=O)[O-] [CLC-1011, 2-aminoethyl nitrate]	–	–	increase in blood perfusion	up to 3 weeks	significant arteriogenic effects; also recorded: angiogenesis has been stimulated	significant arteriogenic effects	significantly contributes to an increase of the number of arterioles	clear increase in the formation of new blood vessels	significantly increases luminal area	significantly prevents activation of platelets in resting state	induced the release of the circulating SDF-1	increase in the blood perfusion; also recorded: increased blood perfusion	increase of the area under the curve	increase of the capillary density	increase of the arterioles	increased	enhances the recruitment of the endothelial progenitor cells	increase in the number of potential endothelial progenitor cells	increase in the number of potential endothelial progenitor cells
O=C1CCc2cc(OCCCCc3nnnn3C3CCCCC3)ccc2N1 [Cilostazol, reference compound]	–	–	no effect in blood flow	–	–	–	–	–	such effect is absent	no effect in prevention of platelet activation and aggregation	–	remains unchanged	–	–	no change	not	–	–	–
